Source: PubChem BioAssay AID489033 (Sanford-Burnham Center for Chemical Genomics, 2010)
Calls of active or inactive are those of the source. The rule behind the calls is not given here. *1 amine or outer side, *2 acyl side, *3 side chain or, on linkers, in order; H or OH if unused. Where a SMILES comes first, the peptide text is derived from it. [ ]: non-standard residue; d: D form. X2 = CCC[C@@H](N[*:1])[C@H](C)C(=O)O[C@H](C(=O)[*:2])[C@@H](C)CC; X1 = CC(N[*:1])C(=O)C(C)(C)C(=O)[*:2]; NMeY = CN[C@@H](Cc1ccc(O)cc1)C(=O)O; NMeL = CN[C@@H](CC(C)C)C(=O)O; NMeV = CN[C@H](C(=O)O)C(C)C; NMeA = CN[C@@H](C)C(=O)O

System: 697B B-cell line, NF-kB luciferase reporter luminescence
Assay: inhibitors of B-cell NF-kB luciferase signal – 697B cells, luminescence, selectivity assay for T-cell antigen receptor NF-kB inhibitors, dose response (AID 489033)

Row | Structure (SMILES) | IC50
1 | CCOC(=O)C1CCN(S(=O)(=O)c2c(Cl)ccc3nonc23)CC1 | 1.06 µM
2 | COc1cc(C2=NOC(C(=O)NCc3ccc(F)cc3)C2)cc(OC)c1OC (centres undefined) | > 80 µM (inactive)
3 | Cc1ccc(S(=O)(=O)Cc2ccc(C(=O)N3CCN(c4cccc(C)c4C)CC3)o2)cc1 | 57.9 µM (inactive)
4 | O=C(Nc1ccn(Cc2ccccc2F)n1)c1ccc(COc2ccc(Br)cc2)cc1 | > 80 µM (inactive)
5 | Cc1cccc(N(C)S(=O)(=O)c2ccc(-c3cnc(C4CC4)o3)cc2)c1 | > 80 µM (inactive)
6 | O=C(NC(Nc1nc2ccc([N+](=O)[O-])cc2s1)(C(F)(F)F)C(F)(F)F)c1ccccc1 | 0.72 µM
7 | O=C(Cc1ccc(-c2ccccc2)cc1)NCc1ccccc1 | > 80 µM (inactive)
8 | COc1ccc(Br)cc1/C(C)=N/NC1=NCCN1 | > 80 µM (inactive)
9 | COc1cc(C(=O)OCCc2cc3ccccc3c(=O)o2)cc(OC)c1OC | > 80 µM (inactive)
10 | COc1ccc(-c2ccc3oc(-c4ccc(OC)cc4)c(C#CCO)c3c2)cc1 | > 80 µM (inactive)
11 | COc1cc([C@@H]2c3cc4c(cc3[C@@H](OC)[C@H]3COC(=O)[C@H]23)OCO4)cc(OC)c1O | > 80 µM (inactive)
12 | O=C1CC(c2cc(F)ccc2F)c2cc3c(cc2N1)CCC3 (centres undefined) | > 80 µM (inactive)
13 | COc1ccc(-n2cc(-c3ccc(C)cc3)[n+]3c2SCC3)cc1 | > 80 µM (inactive)
14 | O=C(Nc1ccc(CSc2ccccc2)cc1)c1ccc(CN2CCOCC2)cc1 | > 80 µM (inactive)
15 | COc1cc2c(cc1O)CC[C@@H]1[C@@H]2CC[C@]2(C)[C@@H](O)CC[C@@H]12 | > 80 µM (inactive)
16 | O=S(=O)(c1cc(F)ccc1F)N1CCN(c2ncnc3ccccc23)CC1 | 74.1 µM (inactive)
17 | CCC[C@H]1NC(=O)[C@H](C)N(C)C(=O)C(C)(C)C(=O)C(C)NC(=O)[C@H](Cc2ccc(OC)cc2)N(C)C(=O)[C@H](C(C)C)N(C)C(=O)CNC(=O)[C@H](CC(C)C)N(C)C(=O)CNC(=O)[C@H]([C@@H](C)CC)OC(=O)[C@H]1C (some centres undefined) (cyclo(G[NMeL]G[NMeV][NMeY](Me)[X1][NMeA][X2])) | 29.3 µM (inactive)
18 | Cc1ccc(C(=O)c2cc([N+](=O)[O-])ccc2N2CCOCC2)c(C)c1 | > 80 µM (inactive)
19 | CC[C@@]1(O)C(=O)OCc2c1cc1n(c2=O)Cc2cc3c(N)cccc3nc2-1 | 0.62 µM
20 | NC(=O)CC(NC(=O)c1ccc(Br)cc1)c1ccc(N2CCCCCC2)c([N+](=O)[O-])c1 (centres undefined) | 47.5 µM (inactive)
21 | CCCCCCCCn1c2c(c(=N)c3ccccc31)CCC2 | 2.31 µM
22 | Cc1csc2ncnc(NC3CCN(Cc4ccccc4)CC3)c12 | 8.31 µM
23 | CCCCCCCOc1ccc(OC(=O)c2ccncc2)cc1 | > 80 µM (inactive)
24 | COc1ccc(-n2nnnc2-c2cccc(OC)c2)cc1 | > 80 µM (inactive)
25 | O=C(Nc1ccncc1)C1CCCN(S(=O)(=O)c2cccc3cccnc23)C1 (centres undefined) | > 80 µM (inactive)
26 | CCCc1cc(C(=O)Nc2cc(C)ccc2O)no1 | > 80 µM (inactive)
27 | Cc1ccc(NC(=O)c2cc3ccccc3oc2=O)cc1S(=O)(=O)N(C)C | < 0.16 µM
28 | Cc1ccc(C)c(CSc2nc3[nH]ncc3c(=O)[nH]2)c1 | 15.7 µM
29 | CCCCOc1ccccc1C1CC(=O)NC2=C1C(=O)CCC2 (centres undefined) | > 80 µM (inactive)
